Laboratory results from patent US8835484B2, “Naphthocyanines for use as contrast agents” (Alamedics GmbH & Co. KG, priority 2010, dated 2014).

Key:
lens capsule = experiment: Dye tests on porcine eyes (lens capsule staining); set-up: key: +++: visually assessed very strong coloration; ++: good coloration; +: satisfactory coloration; −: weak or absent coloration; settings: incubated, rinsed after one minute
Description: For the dye test, in each case 5 mg dye was dissolved in 500 μL ethanol and diluted to 2 mL with BSS Plus solution as the stock solution, and then correspondingly further diluted. As an alternative, one can prepare stock solutions of the dye by dissolving, for example, 5 mg dye in 1 mL distilled water, adding 7 mL BSS solution and then combining with 1 mL NaCl solution having an osmolality of 620 (approximately 2%) in order to restore the original osmolality of the BSS solution (308). This stock solution can be correspondingly further diluted with BSS solution as required. Enucleated porcine eyes were used having a post mortem time period of a few hours. To dye the lens capsule, the cornea was first removed. Thereafter, the iris was resected and the capsular support was severed. The lens with intact lens capsule was removed and placed in a bowl filled with BSS. The lenses were thereafter incubated with the dyes according to the invention at various concentrations and then rinsed after one minute. The dye pattern was photographically documented, whereby the coloration was assessed without additional illumination, and fluorescence was assessed with illumination (Xenon lamp, halogen lamp with typical endoillumination source and fiber optics). The lens capsule is a very good model for dyeing due to the fact that it is a basal membrane, as is the ILM of the retina. Both structures are important target structures in eye surgery.

[1] = Fluorescence quantum yield; type: physicochemical; settings: CHCl3; Reference: S-13 with Φ=1.00
Source text: IR spectra: Perkin Elmer Spectrum BX II, using a diamond anvil cell; UV/Vis spectra: Varian Cary 5000 and Bruins Omega 20; fluorescence spectra: Varian Eclispe; NMR spectroscopy: Varian Vnmrs 600 (600 MHz, 400 MHz, 200 MHz); mass spectrometry: Thermo Finnigan LQT FT.

[2] = Solid cyanine dye stability comparison; type: physicochemical; settings: storage
Source text: Decomposition of the solid dye results in a red coloration of the solid and the solution. Carboxylic acid esters, especially methyl ester, are particularly sensitive in addition to the bromides.

Row | Compound | coloration of lens capsule (lens capsule; dye concentration 0.5%) | coloration of lens capsule (lens capsule; dye concentration 1.0) | Fluorescence quantum yield [1] | Stability [2] | coloration of lens capsule (lens capsule; dye concentration 0.0025%) | coloration of lens capsule (lens capsule; dye concentration 0.025%) | coloration of lens capsule (lens capsule; dye concentration 0.25%)
1 | CC1(C)C(=CC=CC2=[N+](CCCCCS(=O)(=O)O)c3ccc4ccccc4c3C2(C)C)N(CCCCCS(=O)(=O)O)c2ccc3ccccc3c21.[Br-] [Dye 3u, 3,3′-Di-(5-sulfopentyl)-1,1,1′,1′-tetramethyl-1H-dibenzo[e]indocarbocyanine bromide] | − | + | 0.13 | No decomposition after 4 months |  |  | 
2 | COC(=O)CCCCCCCCCN1C(=CC=CC2=[N+](CCCCCCCCCC(=O)OC)c3ccc4ccccc4c3C2(C)C)C(C)(C)c2c1ccc1ccccc21.[Br-] [Dye 3j, 3,3′-Di-(9-methoxycarbonylnonyl)-1,1,1′,1′-tetramethyl-1H-dibenzo[e]indocarbocyanine bromide] | ++ |  | 0.47 |  | − | − | +
3 | CC1(C)C(=CC=CC2=[N+](CCCCCCCCCCCC(=O)O)c3ccc4ccccc4c3C2(C)C)N(CCCCCCCCCCCC(=O)O)c2ccc3ccccc3c21.[Br-] [Dye 3g, 3,3′-Di-(11-carboxyundecyl)-1,1,1′,1′-tetramethyl-1H-dibenzo[e]indocarbocyanine bromide] | ++ |  | 0.35 |  | − | − | ++
4 | CC1(C)C(/C=C/C=C2\N(CCCCS(=O)(=O)[O-])c3ccc4c(S(=O)(=O)O)cccc4c3C2(C)C)=[N+](CCCCS(=O)(=O)O)c2ccc3c(S(=O)(=O)O)cccc3c21 [Dye 6a, 3,3′-Di-(4-sulfobutyl)-1,1,1′,1′-tetramethyl-1H-disulfobenzo[e]indocarbocyanine bromide] | +++ | +++ | 0.33 | No decomposition after 4 months |  |  | 
5 | CCOC(=O)CCCCCN1C(=CC=CC2=[N+](CCCCCC(=O)OCC)c3ccc4ccccc4c3C2(C)C)C(C)(C)c2c1ccc1ccccc21.[Br-] [Dye 3o, 3,3′-Di-(5-ethoxycarbonylpentyl)-1,1,1′,1′-tetramethyl-1H-dibenzo[e]indocarbocyanine bromide] | ++ |  | 0.36 |  | − | − | ++
6 | COC(=O)CCCCN1C(=CC=CC2=[N+](CCCCC(=O)OC)c3ccc4ccccc4c3C2(C)C)C(C)(C)c2c1ccc1ccccc21.[Br-] [Dye 3i, 3,3′-Di-(4-methoxycarbonylbutyl)-1,1,1′,1′-tetramethyl-1H-dibenzo[e]indocarbocyanine bromide] | ++ |  | 0.40 |  | − | + | +
7 | CC1(C)C(=CC=CC2=[N+](CCCCCCCC(=O)O)c3ccc4ccccc4c3C2(C)C)N(CCCCCCCC(=O)O)c2ccc3ccccc3c21.[Br-] [Dye 3d, 3,3′-Di-(7-carboxyheptyl)-1,1,1′,1′-tetramethyl-1H-dibenzo[e]indocarbocyanine bromide] | +++ |  | 0.43 |  | − | − | +
8 | CCOC(=O)CCCCN1C(=CC=CC2=[N+](CCCCC(=O)OCC)c3ccc4ccccc4c3C2(C)C)C(C)(C)c2c1ccc1ccccc21.[Br-] [Dye 3n, 3,3′-Di-(4-ethoxycarbonylbutyl)-1,1,1′,1′-tetramethyl-1H-dibenzo[e]indocarbocyanine bromide] | ++ |  | 0.43 |  | − | − | +
9 | COC(=O)CCN1C(=CC=CC2=[N+](CCC(=O)OC)c3ccc4ccccc4c3C2(C)C)C(C)(C)c2c1ccc1ccccc21.[Br-] [Dye 3h, 3,3′-Di-(2-methoxycarbonylethyl)-1,1,1′,1′-tetramethyl-1H-dibenzo[e]indocarbocyanine bromide] | +++ |  | 0.24 |  | − | + | ++
10 | CCOC(=O)CCN1C(=CC=CC2=[N+](CCC(=O)OCC)c3ccc4ccccc4c3C2(C)C)C(C)(C)c2c1ccc1ccccc21.[Br-] [Dye 3l, 3,3′-Di-(2-ethoxycarbonylethyl)-1,1,1′,1′-tetramethyl-1H-dibenzo[e]indocarbocyanine bromide] | +++ |  | 0.33 |  | − | + | +++
11 | CC1(C)C(=CC=CC2=[N+](CCCCCCCCCCC(=O)O)c3ccc4ccccc4c3C2(C)C)N(CCCCCCCCCCC(=O)O)c2ccc3ccccc3c21.[Br-] [Dye 3f, 3,3′-Di-(10-carboxydecyl)-1,1,1′,1′-tetramethyl-1H-dibenzo[e]indocarbocyanine bromide] |  |  | 0.33 |  |  |  | 
12 | 3,3′-Di-(5-bromodecyl)-1,1,1′,1′-tetramethyl-1H-dibenzo[e]indocarbocyanine bromide [Dye 3x] |  |  | 0.10 | No decomposition after 4 months |  |  | 
13 | CC1(C)C(/C=C/C=C2\N(CCC(=O)O)c3ccc4ccccc4c3C2(C)C)=[N+](CCC(=O)O)c2ccc3ccccc3c21.[Br-] [Dye 3a, 3,3′-Di-(2-carboxyethyl)-1,1,1′,1′-tetramethyl-1H-dibenzo[e]indocarbocyanine bromide] | ++ |  | 0.35 |  | − | + | ++
14 | CC1(C)C(=CC=CC2=[N+](CCCCCC(=O)O)c3ccc4ccccc4c3C2(C)C)N(CCCCCC(=O)O)c2ccc3ccccc3c21.[Br-] [Dye 3c, 3,3′-Di-(5-carboxypentyl)-1,1,1′,1′-tetramethyl-1H-dibenzo[e]indocarbocyanine bromide] | +++ |  | 0.50 |  | − | − | +++
15 | 3,3′-Di-(5-bromopentyl)-1,1,1′,1′-tetramethyl-1H-dibenzo[e]indocarbocyanine bromide [Dye 3y] |  |  | 0.15 | No decomposition after 4 months |  |  | 
16 | CCOC(=O)CCCCCCN1C(=CC=CC2=[N+](CCCCCCC(=O)OCC)c3ccc4ccccc4c3C2(C)C)C(C)(C)c2c1ccc1ccccc21.[Br-] [Dye 3p, 3,3′-Di-(6-ethoxycarbonylhexyl)-1,1,1′,1′-tetramethyl-1H-dibenzo[e]indocarbocyanine bromide] |  |  | 0.35 |  |  |  | 
17 | COC(=O)CCCCCCCCCCN1C(=CC=CC2=[N+](CCCCCCCCCCC(=O)OC)c3ccc4ccccc4c3C2(C)C)C(C)(C)c2c1ccc1ccccc21.[Br-] [Dye 3k, 3,3′-Di-(10-methoxycarbonyldecyl)-1,1,1′,1′-tetramethyl-1H-dibenzo[e]indocarbocyanine bromide] | ++ |  | 0.36 |  | − | − | +
18 | CC1(C)C(=CC=CC2=[N+](CCCCCCCCCC(=O)O)c3ccc4ccccc4c3C2(C)C)N(CCCCCCCCCC(=O)O)c2ccc3ccccc3c21.[Br-] [Dye 3e, 3,3′-Di-(9-carboxynonyl)-1,1,1′,1′-tetramethyl-1H-dibenzo[e]indocarbocyanine bromide] | ++ |  | 0.59 |  | − | − | ++
19 | CC1(C)C(=CC=CC2=[N+](CCCCC(=O)O)c3ccc4ccccc4c3C2(C)C)N(CCCCC(=O)O)c2ccc3ccccc3c21.[Br-] [Dye 3b, 3,3′-Di-(4-carboxybutyl)-1,1,1′,1′-tetramethyl-1H-dibenzo[e]indocarbocyanine bromide] |  |  | 0.49 |  |  |  | 
20 | CCOC(=O)CCCN1C(=CC=CC2=[N+](CCCC(=O)OCC)c3ccc4ccccc4c3C2(C)C)C(C)(C)c2c1ccc1ccccc21.[Br-] [Dye 3m, 3,3′-Di-(3-ethoxycarbonylpropyl)-1,1,1′,1′-tetramethyl-1H-dibenzo[e]indocarbocyanine bromide] | +++ |  | 0.61 |  | − | − | ++
